Source: PubChem BioAssay AID248 (DTP/NCI, 2004)
Toxic doses and inconclusive results are not listed.

System: L1210 leukemia ip in BDF1 mice, survival T/C
Test: NCI In Vivo Anticancer Drug Screen. Data for tumor model L1210 Leukemia (intraperitoneal) in B6D2F1 (BDF1) mice
Details: higher = longer survival
Method in brief: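 Survival endpoint. Drug-treated group vs vehicle group, expressed as T divided by C. Tumor passaged by transplantation.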

SMILES: O=C1CN=C(c2ccc[nH]2)c2cc(Cl)ccc2N1
- T/C (endpoint: mean survival time, dose: 100.0 mg/kg/injection, schedule: Q03HX008 (oral), vehicle: saline with Tween-80): 123 % of control
- T/C (endpoint: mean survival time, dose: 100.0 mg/kg/injection, schedule: Q03HX024 (oral), vehicle: saline with Tween-80): 121 % of control
- T/C (endpoint: mean survival time, dose: 100.0 mg/kg/injection, schedule: Q04DX003 (ip), vehicle: other): 105 % of control
- T/C (endpoint: mean survival time, dose: 100.0 mg/kg/injection, schedule: Q04DX003 (oral), vehicle: saline with Tween-80): 109 % of control
- T/C (endpoint: mean survival time, dose: 100.0 mg/kg/injection, schedule: Q08DX002 (ip), vehicle: other): 115 % of control
- T/C (endpoint: mean survival time, dose: 100.0 mg/kg/injection, schedule: Q08DX002 (oral), vehicle: saline with Tween-80): 103 % of control
- T/C (endpoint: mean survival time, dose: 102.0 mg/kg/injection, schedule: Q01DX007 (oral), vehicle: other): 108 % of control
- T/C (endpoint: mean survival time, dose: 112.0 mg/kg/injection, schedule: Q01DX015 (ip), vehicle: other): 158 % of control
- T/C (endpoint: mean survival time, dose: 112.5 mg/kg/injection, schedule: Q01DX Z (ip), vehicle: carboxymethylcellulose (CMC)): 170 % of control
- T/C (endpoint: mean survival time, dose: 120.0 mg/kg/injection, schedule: Q01DX009 (ip), vehicle: other): 116 % of control
- T/C (endpoint: mean survival time, dose: 156.0 mg/kg/injection, schedule: Q01DX007 (oral), vehicle: other): 112 % of control
- T/C (endpoint: mean survival time, dose: 180.0 mg/kg/injection, schedule: Q01DX009 (ip), vehicle: other): 155 % of control
- T/C (endpoint: mean survival time, dose: 200.0 mg/kg/injection, schedule: Q01DX001 (ip), vehicle: other): 106 % of control
- T/C (endpoint: mean survival time, dose: 200.0 mg/kg/injection, schedule: Q01DX001 (iv), vehicle: other): 108 % of control
- T/C (endpoint: mean survival time, dose: 200.0 mg/kg/injection, schedule: Q01DX001 (oral), vehicle: saline with Tween-80): 116 % of control
- T/C (endpoint: mean survival time, dose: 200.0 mg/kg/injection, schedule: Q01DX009 (oral), vehicle: saline with Tween-80): 109 % of control
- T/C (endpoint: mean survival time, dose: 200.0 mg/kg/injection, schedule: Q04DX003 (ip), vehicle: other): 114 % of control
- T/C (endpoint: mean survival time, dose: 200.0 mg/kg/injection, schedule: Q04DX003 (oral), vehicle: saline with Tween-80): 115 % of control
- T/C (endpoint: mean survival time, dose: 200.0 mg/kg/injection, schedule: Q08DX002 (ip), vehicle: other): 118 % of control
- T/C (endpoint: mean survival time, dose: 200.0 mg/kg/injection, schedule: Q08DX002 (oral), vehicle: saline with Tween-80): 105 % of control
- T/C (endpoint: mean survival time, dose: 225.0 mg/kg/injection, schedule: Q01DX Z (ip), vehicle: carboxymethylcellulose (CMC)): 86 % of control
- T/C (endpoint: mean survival time, dose: 240.0 mg/kg/injection, schedule: Q01DX007 (oral), vehicle: other): 119 % of control
- T/C (endpoint: mean survival time, dose: 400.0 mg/kg/injection, schedule: Q01DX001 (ip), vehicle: other): 112 % of control
- T/C (endpoint: mean survival time, dose: 400.0 mg/kg/injection, schedule: Q01DX001 (iv), vehicle: other): 109 % of control
- T/C (endpoint: mean survival time, dose: 400.0 mg/kg/injection, schedule: Q01DX001 (oral), vehicle: saline with Tween-80): 108 % of control
- T/C (endpoint: mean survival time, dose: 400.0 mg/kg/injection, schedule: Q01DX009 (ip), vehicle: Klucel (hydroxypropylcellulose) (HPC)): 109 % of control
- T/C (endpoint: mean survival time, dose: 400.0 mg/kg/injection, schedule: Q01DX009 (ip), vehicle: water): 108 % of control
- T/C (endpoint: mean survival time, dose: 400.0 mg/kg/injection, schedule: Q01DX009 (oral), vehicle: saline with Tween-80): 105 % of control
- T/C (endpoint: mean survival time, dose: 400.0 mg/kg/injection, schedule: Q04DX003 (ip), vehicle: other): 114 % of control
- T/C (endpoint: mean survival time, dose: 400.0 mg/kg/injection, schedule: Q08DX002 (ip), vehicle: other): 109 % of control
- T/C (endpoint: mean survival time, dose: 400.0 mg/kg/injection, schedule: Q08DX002 (oral), vehicle: saline with Tween-80): 109 % of control
- T/C (endpoint: mean survival time, dose: 540.0 mg/kg/injection, schedule: Q01DX001 (oral), vehicle: other): 110 % of control
- T/C (endpoint: mean survival time, dose: 720.0 mg/kg/injection, schedule: Q01DX001 (oral), vehicle: other): 110 % of control
- T/C (endpoint: mean survival time, dose: 800.0 mg/kg/injection, schedule: Q08DX002 (oral), vehicle: saline with Tween-80): 121 % of control
- T/C (endpoint: median survival time, dose: 2.0 mg/kg/injection, schedule: Q03HX008 (ip), vehicle: clinical formulation): 95 % of control
- T/C (endpoint: median survival time, dose: 32.0 mg/kg/injection, schedule: Q04DX003 (ip), vehicle: clinical formulation): 90 % of control
- T/C (endpoint: median survival time, dose: 50.0 mg/kg/injection, schedule: Q01DX009 (ip), vehicle: steriod suspending solution): 100 % of control
- T/C (endpoint: median survival time, dose: 50.0 mg/kg/injection, schedule: Q01DX009 (sc), vehicle: steriod suspending solution): 100 % of control
- T/C (endpoint: median survival time, dose: 64.0 mg/kg/injection, schedule: Q01DX001 (ip), vehicle: clinical formulation): 95 % of control
- T/C (endpoint: median survival time, dose: 64.0 mg/kg/injection, schedule: Q04DX003 (ip), vehicle: clinical formulation): 100 % of control
- T/C (endpoint: median survival time, dose: 100.0 mg/kg/injection, schedule: Q01DX001 (ip), vehicle: acid diluted with saline): 100 % of control
- T/C (endpoint: median survival time, dose: 100.0 mg/kg/injection, schedule: Q01DX009 (ip), vehicle: steriod suspending solution): 100 % of control
- T/C (endpoint: median survival time, dose: 100.0 mg/kg/injection, schedule: Q01DX009 (sc), vehicle: steriod suspending solution): 100 % of control
- T/C (endpoint: median survival time, dose: 200.0 mg/kg/injection, schedule: Q01DX001 (ip), vehicle: acid diluted with saline): 95 % of control
- T/C (endpoint: median survival time, dose: 200.0 mg/kg/injection, schedule: Q01DX009 (ip), vehicle: steriod suspending solution): 122 % of control
- T/C (endpoint: median survival time, dose: 200.0 mg/kg/injection, schedule: Q01DX009 (sc), vehicle: steriod suspending solution): 100 % of control
- T/C (endpoint: median survival time, dose: 400.0 mg/kg/injection, schedule: Q01DX009 (ip), vehicle: steriod suspending solution): 150 % of control
- T/C (endpoint: median survival time, dose: 400.0 mg/kg/injection, schedule: Q01DX009 (sc), vehicle: steriod suspending solution): 122 % of control
- T/C (endpoint: median survival time, dose: 800.0 mg/kg/injection, schedule: Q01DX009 (ip), vehicle: steriod suspending solution): 88 % of control
